# Test results as given in ChEMBL document CHEMBL2331376, “Ridaifen B, a tamoxifen derivative, directly binds to Grb10 interacting GYF protein 2” (Bioorg Med Chem, 2013).
# Active and inactive are the calls of the source. The rule behind the calls is not given here.
# Legend:
# [1] = molecular target: T1, GRB10-interacting GYF protein 2 (Homo sapiens) (UniProt Q6Y7W6); experiment: Binding affinity to Grb10 interacting GYF protein 2 in human Jurkat cells using 10 uM compound immobilized on streptavidin-coated wells by T7 phase display screening method; assay type: cell-based
# T1 sequence (whole entry): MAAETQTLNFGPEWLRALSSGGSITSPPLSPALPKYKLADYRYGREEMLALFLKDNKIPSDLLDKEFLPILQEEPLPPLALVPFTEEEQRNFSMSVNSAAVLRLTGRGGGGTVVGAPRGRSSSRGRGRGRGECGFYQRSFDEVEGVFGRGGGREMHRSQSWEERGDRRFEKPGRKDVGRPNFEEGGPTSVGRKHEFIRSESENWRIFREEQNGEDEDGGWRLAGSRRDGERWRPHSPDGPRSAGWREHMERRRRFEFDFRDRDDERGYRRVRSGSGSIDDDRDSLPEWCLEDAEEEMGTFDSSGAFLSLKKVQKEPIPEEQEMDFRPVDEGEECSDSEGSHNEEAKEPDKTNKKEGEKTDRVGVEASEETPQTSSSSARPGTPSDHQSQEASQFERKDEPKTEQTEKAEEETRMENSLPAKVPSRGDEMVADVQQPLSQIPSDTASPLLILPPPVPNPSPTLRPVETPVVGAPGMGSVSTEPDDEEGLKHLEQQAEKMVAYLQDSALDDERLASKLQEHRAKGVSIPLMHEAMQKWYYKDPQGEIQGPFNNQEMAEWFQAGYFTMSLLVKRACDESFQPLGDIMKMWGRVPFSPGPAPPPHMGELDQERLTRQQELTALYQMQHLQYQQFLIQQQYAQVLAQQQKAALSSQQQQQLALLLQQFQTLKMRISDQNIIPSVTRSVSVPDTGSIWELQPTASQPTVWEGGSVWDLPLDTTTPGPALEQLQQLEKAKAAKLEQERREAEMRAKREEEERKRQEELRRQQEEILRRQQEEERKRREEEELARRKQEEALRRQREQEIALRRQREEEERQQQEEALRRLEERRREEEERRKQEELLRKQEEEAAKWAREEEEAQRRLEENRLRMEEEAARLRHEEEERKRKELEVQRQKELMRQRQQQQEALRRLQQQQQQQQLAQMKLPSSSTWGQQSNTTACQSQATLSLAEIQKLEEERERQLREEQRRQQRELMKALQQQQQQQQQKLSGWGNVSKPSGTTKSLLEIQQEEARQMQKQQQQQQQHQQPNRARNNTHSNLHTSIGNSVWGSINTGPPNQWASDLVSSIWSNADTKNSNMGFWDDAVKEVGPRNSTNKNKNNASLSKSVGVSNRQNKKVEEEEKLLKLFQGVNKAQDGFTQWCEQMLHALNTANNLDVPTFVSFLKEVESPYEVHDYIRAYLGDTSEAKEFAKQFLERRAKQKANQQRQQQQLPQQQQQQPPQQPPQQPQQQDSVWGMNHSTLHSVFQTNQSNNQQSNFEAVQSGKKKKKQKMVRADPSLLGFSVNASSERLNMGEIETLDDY
# [2] = molecular target: T1, GRB10-interacting GYF protein 2 (Homo sapiens); experiment: Binding affinity to Flag-tagged Grb10 interacting GYF protein 2 (unknown origin) expressed in HEK293T cells by Western blotting method based pull-down assay; assay type: cell-based; details: HEK-293T
# [3] = molecular target: T1, GRB10-interacting GYF protein 2 (Homo sapiens); experiment: (§1) Binding affinity to recombinant His-tagged Grb10 interacting GYF protein 2 (745-1030 amino acids) (unknown origin) by surface plasmon resonance analysis
# [4] = molecular target: T2, GRB10-interacting GYF protein 2 (Homo sapiens, UniProt Q6Y7W6); experiment: as §1
# T2 sequence (Q6Y7W6 whole entry): T1 sequence (whole entry)
Compound,Activity [1],Activity [2],Activity [3],Kd [4] [nM]
CCC(=C(c1ccc(OCCN2CCOCC2)cc1)c1ccc(OCCN2CCOCC2)cc1)c1cccc(OC(=O)CCCCCNC(=O)CCCC[C@@H]2SC[C@@H]3NC(=O)N[C@@H]32)c1,inactive,inactive,inactive,–
CCC(=C(c1ccc(OCCN2CCCC2)cc1)c1ccc(OCCN2CCCC2)cc1)c1cccc(OC(=O)CCCCCNC(=O)CCCC[C@@H]2SC[C@@H]3NC(=O)N[C@@H]32)c1,Active,Active,Dose-dependent effect,186
